Assay results from US11021706B2, “Antisense antibacterial compounds and methods” (priority 2014, dated 2021).
{TEG} = triethylene glycol 5' moiety of the PMO, as defined in the publication

How the values were obtained:
Klebsiella pneuomoniae = experiment: MIC of meropenem with added NDM-1-targeted PPMO; assay type: cell-based; details: without PPMO, data not shown
[1] = test system: adeA-expressing Acinetobacter baumanii; experiment: MIC of gentamicin, tobramycin and tetracycline with added adeA-targeted PPMO (CLSI microdilution); assay type: cell-based; details: concentration dependent
B. cenocepacia K56-2 [2] = experiment: Bcc growth in artificial CF sputum; assay type: cell-based
Method: B. cenocepacia K56-2 was incubated alone or in the presence of either a scrambled sequence (Scr) placebo PPMO or acpP PPMO (PPMO #15, Table 2C) at 10 μM or 20 μM concentration. Media or PPMO was dosed at 2, 8 and 12 hours. Samples were plated at 24 hours and CFU/ml was determined.
PPMOs were tested to determine whether they retained their activity in sputum. Using a well-described method for making “artificial CF sputum,” experiments were conducted to see whether a PPMO could reduce the burden of Bcc in this environment (FIG. 12). B. cenocepacia K56-2 was incubated alone or in the presence of either a scrambled-sequence (Scr) placebo PPMO or acpP PPMO (PPMO #15). The acpP-targeted PPMO has the following sequence: GTCCATTACCC (PPMO #15; SEQ ID NO: 25). The PPMO was conjugated at its 5′ end to the C-terminal β-alanine residue of (RFF)3RXB (SEQ ID NO: 41). Media or PPMO was dosed at 2, 8 and 12 hours. Samples were plated at 24 hours and CFU/ml was determined. The acpP PPMO was able to reduce the organism burden (both at 10 and 20 μM dosing). At 10 μM dosing, there was an approximately 2-log reduction in CFU/ml by 24-hours compared to no treatment control. At 20 μM dosing, there was a >3-log reduction seen. This reduction was apparent as early as 8 hours in the 20 μM group and 12 hours in the 10 μM group. These experiments indicate that PPMOs remain active even in the thick viscous sputum that is seen in CF patients. This is the first time that activity of PPMOs has been tested in sputum.

B. multivorans = experiment: Aerosol PPMO in pulmonary infection model, lung burden; assay type: in vivo; details: single 300 μg aerosol dose 6 hours post-infection; CGD mice; 24 hours after infection
Method: Chronic granulomatous disease (CGD) mice were used as a Bcc infection model. An Aerogen nebulizer was used to deliver either scrambled (Scr) PPMO ([…]) or acpP PPMO (PPMO #15, Table 2C, 300 μg or 30 μg) as a one-time dose 6 hours post-infection. Mice were euthanized 24 hours after infection and lung burden was determined as CFU/g.
Delivering PPMOs directly to the lung in the setting of chronic pulmonary infections would be useful. Chronic granulomatous disease (CGD) mice were used as a Bcc infection model. These mice develop significant morbidity and mortality when infected with various Bcc strains. Mice were infected intranasally with a clinical B. multivorans isolate (FIG. 15). An Aerogen nebulizer was used to deliver either scrambled (Scr) PPMO (300 μg) or acpP PPMO (PPMO #15, 300 μg or 30 μg) as a one-time dose 6 hours post-infection. The acpP-targeted PPMO has the following sequence: GTCCATTACCC (SEQ ID NO: 25). The PPMO was conjugated at its 5′ end to the C-terminal β-alanine residue of (RFF)3RXB (SEQ ID NO: 41). Mice were euthanized 24 hours after infection and lung burden was determined. The single 300 μg dose of the acpP PPMO reduced the lung burden by 93% and was a statistically significant decrease. Aerosol delivery of PPMOs is a viable therapeutic strategy and importantly, this is the first time that nebulized delivery of Bcc PPMOs has been attempted.

B. cenocepacia K56-2 [3] = experiment: 24 hour growth with acpP PPMOs (bactericidal test); assay type: cell-based; details: 16 μM, FIG. 11 Panel A
Method: (§1) Two different isolates of B. cenocepacia were incubated for 24 hours in the presence or absence of different acpP PPMOs. All three acpP PPMOs caused a significant reduction of growth in the clinical CF isolate B. cenocepacia K56-2 (Panel A) and this effect was also seen for the pan-resistant strain B. cenocepacia H14277 (Panel B).
(§2) Many members of the Bcc are intrinsically antibiotic resistant making treatment difficult. B. cenocepacia is one of the most common species encountered by cystic fibrosis (CF) patients. Two different isolates of B. cenocepacia were incubated for 24 hours in the presence or absence of different acpP PPMOs (FIG. 11).

B. cenocepacia J2315 = experiment: MBEC peg biofilm assay, crystal violet and confocal microscopy; assay type: cell-based; details: 10 μM
Method: B. cenocepacia J2315 was grown utilizing MBEC biofilm assay plates for 48 hours in the presence of either acpP PPMO (10 μM), scrambled PPMO (10 μM), peptide or media alone. Biofilm production was measure utilizing a crystal violet method.
The pegs were moved to fresh media containing either nothing, the Scrambled (Scr) control PPMO at 10 μM concentration, or the acpP PPMO at 10 μM concentration. The MBEC pegs were incubated for another 48 hours and then stained with fluorescent green peanut-agglutinin stain for the biofilm and imaged on confocal microscopy.
The formation of biofilm is a significant virulence trait and is utilized by both P. aeruginosa and the Bcc. Bcc biofilms were grown and PPMOs were tested for their ability to both prevent biofilm formation and to deconstruct existing biofilms. B. cenocepacia J2315 (a genome sequenced, epidemic CF isolate) was grown utilizing MBEC biofilm assay plates which contain a peg that grows reproducible biofilms from day to day. J2315 was grown for 48 hours in the presence of either acpP PPMO (10 μM), scrambled PPMO (10 μM), peptide or media alone (FIG. 13). The acpP-targeted PPMO (PPMO #19) has the following sequence: CCATTACCCCT (SEQ ID NO: 27). The PPMO was conjugated at its 5′ end to the beta-alanine residue of (RFF)3RXB (SEQ ID NO: 41). Biofilm production was measured utilizing a crystal violet method. […]

39 Bcc clinical isolates = experiment: PPMO MIC against a panel of 39 Bcc clinical isolates; assay type: cell-based, Burkholderia cepacia complex; details: panel of 39 isolates; FIG. 10
Method: A variety of Bcc isolates were tested, including clinical isolates obtained from various body sites with varying levels of antibiotic resistance. The strain bank included 39 isolates that comprised the most frequently encountered species that have been reported to cause human disease. […] All 6 of these PPMOs targeted AcpP (an acyl carrier protein associated with fatty acid biosynthesis). Differences in the 6 PPMOs related to alternative positioning sites on the target mRNA.

B. cenocepacia HI4277 = experiment: 24 hour growth with acpP PPMOs (bactericidal test), pan-resistant strain; assay type: cell-based; details: FIG. 11 Panel B
Method: as §1, §2

B. cenocepacia H14277 = experiment: PPMO MIC, pan-resistant strain (FIG. 10); assay type: cell-based
Method: In B. cenocepacia K56-2 (a genome-sequenced clinical CF isolate; Panel A) all three PPMOs caused a significant reduction of growth with one PPMO (PPMO #19; SEQ ID NO: 27; 16 μM) causing>3-log reduction of growth compared to the starting inoculum, a strong bactericidal effect. Importantly, this effect was seen even in pan-resistant strains of B. cenocepacia (HI4277, a pan-resistant outbreak isolate from CF patients; FIG. 11, Panel B). […] The MIC of PPMO #19 was 8 μM in H14277 (FIG. 10), illustrating that PPMOs' ability to inhibit growth is not dependent on the underlying level of antibiotic resistance in any particular strain, an important finding with positive implications for this approach.

C[C@@H](O)[C@H]1C(=O)N2C(C(=O)O)=C(S[C@@H]3CN[C@H](C(=O)N(C)C)C3)[C@H](C)[C@H]12 [meropenem]
MIC (Klebsiella pneuomoniae): ~64 µM

PPMO #5: adeA-targeted PMO ATA CTG TCC AA (SEQ ID NO: 15); 5′ TEG; 3′ (RXR)4XB- peptide (antisense ATACTGTCCAA; all phosphorodiamidate morpholino (PMO), 5' {TEG}; 3' end conjugated to (RXR)4XB peptide via beta-alanine)
MIC of gentamicin ([1]; FIG. 2): significantly reduced | MIC of tobramycin ([1]; FIG. 3): significantly reduced | MIC of tetracycline ([1]; FIG. 4): significantly reduced

PPMO #15: acpP-targeted PMO GTCCATTACCC (SEQ ID NO: 25); 5′ (RFF)3RXB- peptide; 3′ H (all phosphorodiamidate morpholino (PMO); 5' end conjugated to (RFF)3RXB peptide via beta-alanine, further chemistry not fully specified)
reduction in CFU/ml compared to no treatment control (B. cenocepacia K56-2 [2]; 10 μM dosing at 2, 8 and 12 hours, by 24-hours): approximately 2 log | time at which the reduction was apparent (B. cenocepacia K56-2 [2]; 10 μM group): 12 h | reduction in CFU/ml compared to no treatment control (B. cenocepacia K56-2 [2]; 20 μM dosing at 2, 8 and 12 hours, 24 hours): > 3 log | time at which the reduction was apparent (B. cenocepacia K56-2 [2]; 20 μM group): 8 h | reduced the lung burden (B. multivorans): 93%

PPMO #19: acpP-targeted PMO CCATTACCCCT (SEQ ID NO: 27); 5′ (RFF)3RXB- peptide; 3′ H (all phosphorodiamidate morpholino (PMO); 5' end conjugated to (RFF)3RXB peptide via beta-alanine, further chemistry not fully specified)
reduction of growth compared to the starting inoculum (B. cenocepacia K56-2 [3]): > 3 log | reduced biofilm formation compared to controls (B. cenocepacia J2315; 48 hours, crystal violet, FIG. 13): > 50% | amount of existing biofilm present (B. cenocepacia J2315; 48 h biofilm then 48 hours more, confocal microscopy and crystal violet, FIG. 14C): significantly reduced | IC75 (39 Bcc clinical isolates): 4 µM | bactericidal effect (B. cenocepacia HI4277): bactericidal | MIC (B. cenocepacia H14277): 8 µM
